From PubChem BioAssay (NCI)
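Growth conditions: 96-well plates. Treatment: test compound, 48 hours, 5 concentrations. Analysis: linear interpolation between bracketing concentrations; unreached endpoints set to highest concentration. GI50 = concentration required for 50% inhibition of growth. TGI: concentration producing complete growth inhibition.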

Tests used:
Assay in all cases: growth of human tumour cells (NCI), 48 h
LOX IMVI melanoma = system: LOX IMVI melanoma
HCT-15 colon = system: HCT-15 colon
CAKI-1 renal = system: CAKI-1 renal
NCI-H226 lung = system: NCI-H226 lung
HL-60(TB) leukemia = system: HL-60(TB) leukemia
BT-549 breast = system: BT-549 breast
SW-620 colon = system: SW-620 colon
UACC-62 melanoma = system: UACC-62 melanoma
HOP-92 NSCLC = system: HOP-92 NSCLC
DU-145 prostate = system: DU-145 prostate
MDA-N = system: MDA-N

| Structure (SMILES) | TGI (LOX IMVI melanoma) [µM] | TGI (HCT-15 colon) [µM] | TGI (CAKI-1 renal) [µM] | TGI (NCI-H226 lung) [µM] | TGI (HL-60(TB) leukemia) [µM] | TGI (BT-549 breast) [µM] | TGI (SW-620 colon) [µM] | TGI (UACC-62 melanoma) [µM] | TGI (HOP-92 NSCLC) [µM] | TGI (DU-145 prostate) [µM] | TGI (MDA-N) [µM] | GI50 (UACC-62 melanoma) [µM] | GI50 (DU-145 prostate) [µM] |
| --- | --- | --- | --- | --- | --- | --- | --- | --- | --- | --- | --- | --- | --- |
| CN(C)CCNC(=O)c1c(O)ccc2c1c1c(n2CCc2ccccc2)C(=O)c2ccccc2C1=O | 6.93 | 15.6 | 19.2 | 35.2 | 18.1 | 32.6 | 20.6 | 5.56 | 22.7 | 20.9 | 5.34 |  |  |
| O=C1C=C(N2CCN(CCOCCO)CC2)C(=O)c2c(O)ccc(O)c21 | 6.62 | 9.55 | 29.3 | 35.5 | > 29.2 | 25.5 | 6.48 | 4.1 | 20.7 | 10.5 | 3.29 |  |  |
| C=CC[C@H](N=C(SC)SC)C(=O)N1C(=O)N(C)[C@@H](C)[C@H]1c1ccccc1 | > 100 | > 100 | > 100 | > 100 | > 100 | > 100 | > 100 | > 100 | 68.3 | > 100 | > 100 |  |  |
| O=C(Nc1ccc2ccccc2c1)c1cc2cc(CCl)ccc2oc1=O | > 100 | > 100 | > 100 | > 100 | > 100 | > 100 | > 100 | > 100 | > 100 | > 100 | > 100 |  |  |
| CCOc1cc2c(cc1O)C(N)C[C@@H]1[C@@H]2CC[C@]2(C)[C@@H](O)CC[C@@H]12 (stereo partly drawn) | > 100 | > 100 | > 100 | > 100 | 46.5 | > 100 | > 100 | > 100 | > 100 | > 100 | > 100 | 18.7 | > 100 |
| CCOC(=O)C1=C(C)N(Cc2ccccc2)C2(O)C=CC(=O)C3=C(O)c4ccccc4C(=O)C312 (stereo not drawn) | 36.6 | 22 | 37.2 | 54.4 | 42.1 | 20.2 | 28.2 | 31.1 | 41.8 | 38.3 | 22.3 |  |  |
| Cc1csc(-n2c(C)nc3cc(Cl)ccc3c2=O)n1 | > 100 | > 100 | > 100 | > 100 | > 100 | > 100 | > 100 | > 100 | > 100 | > 100 | > 100 |  |  |
| Cc1ccc(/C=C2\N=C(N3CCCC(CO)C3)NC2=O)cc1 (stereo not drawn) | > 100 | > 100 | > 100 | > 100 | > 100 | > 100 | > 100 | > 100 | > 100 | > 100 | > 100 |  |  |
| Cc1ccc2c(c1C)C(=O)/C(=C/c1cccc(C)c1C(=O)O)C2 | > 90.7 | > 100 | > 100 | > 100 | > 100 | > 100 | > 100 | > 100 | > 91 | > 100 | > 100 |  |  |
| CCNC(=S)N/N=C(\C)c1cccc(C)n1 | > 100 | > 100 |  | 47.9 | 53.6 | > 100 | > 100 | 41.3 | 53.1 | 73.1 | > 100 |  |  |
| C[C@H](CCC(=O)NCC(=O)O)[C@H]1CC[C@H]2[C@@H]3[C@H](O)C[C@@H]4C[C@H](O)CC[C@]4(C)[C@H]3CC[C@]12C | > 100 | > 100 | > 100 | > 100 | > 100 | > 100 | > 100 | > 100 | > 100 | > 100 | > 100 |  |  |
| COc1ccc(CNc2nc3ccccc3nc2C(=O)O)cc1 | > 100 | 60.9 | > 100 | > 100 | > 100 | > 100 | > 100 | > 100 | > 100 | > 100 | > 100 |  |  |
| CC(=O)NC1C(OCc2ccccc2)OC(CO)C(O)C1OCC(=O)N[C@@H](C)C(=O)N[C@H](CCC(=O)NCCCNc1ccc([N+](=O)[O-])c2[nH]c3ccccc3c(=O)c12)C(N)=O (stereo partly drawn) | > 100 | > 100 | > 100 | 65.8 | > 100 | 96.9 | > 100 | > 100 | > 100 | > 100 | > 100 |  |  |
| CSCCCNC(=O)[C@H](CSC)NC(=O)c1csc(CCNC(=O)[C@@H](NSc2ccccc2[N+](=O)[O-])C(C)O)n1 (stereo partly drawn) | > 100 | > 100 | > 100 | > 100 | > 100 | > 100 | > 100 | > 100 | > 100 | > 100 | > 100 |  |  |
| Cc1c(O)c(=O)ccn1CCc1ccc(O)cc1 | 53.9 | > 100 | 32 |  | 81.3 | > 100 | > 100 | 12.8 | 57 | > 100 | > 100 |  |  |
| CC[C@@]1(O)C(=O)OCc2c1cc1n(c2=O)Cc2c-1nc1ccccc1c2/C=N\NC(=O)C(N)Cc1c[nH]c2ccccc12 (stereo partly drawn) | 3.27 | > 100 | 2.52 | 11.9 | 12.1 | > 100 | > 100 | 0.712 | > 54 | > 100 | > 100 |  |  |
| COc1ccccc1NC(=S)N/N=C/c1cccc(C)n1 | > 100 | > 100 | 74.7 | 37.3 | > 29.8 | > 100 | > 100 | 15.1 | > 92.8 | > 100 | > 100 |  |  |
| CC/C(N)=N\NC(=O)OC(C)(C)C | > 100 | > 100 | > 100 | > 100 | > 100 | > 100 | > 100 | > 100 | > 100 | > 100 | > 100 |  |  |
| O=[N+]([O-])C(C=C(n1nnc2ccccc21)n1nnc2ccccc21)=C(n1nnc2ccccc21)n1nnc2ccccc21 | > 100 | > 100 | > 100 | > 100 | > 100 | > 100 | > 100 | > 100 | > 100 | > 100 | > 100 |  |  |

| Structure (SMILES) | TGI (LOX IMVI melanoma) [µM] | TGI (HCT-15 colon) [µM] | TGI (CAKI-1 renal) [µM] | TGI (NCI-H226 lung) [µM] | TGI (HL-60(TB) leukemia) [µM] | TGI (BT-549 breast) [µM] | TGI (SW-620 colon) [µM] | TGI (UACC-62 melanoma) [µM] | TGI (HOP-92 NSCLC) [µM] | TGI (DU-145 prostate) [µM] | TGI (MDA-N) [µM] | GI50 (UACC-62 melanoma) [µM] | GI50 (DU-145 prostate) [µM] |
| --- | --- | --- | --- | --- | --- | --- | --- | --- | --- | --- | --- | --- | --- |
| COc1cc(/C=N/NC2=NCCN2)ccc1O | > 100 | > 100 |  | > 100 | > 100 | > 100 | > 100 | > 100 | > 100 | > 100 | > 100 |  |  |
| COc1cc2c3c(cc(Cl)nc3c1OC)C(O)(CC(=O)c1ccccc1)C(=O)N2 (stereo not drawn) | 20.6 | 50.9 | 31.6 | 41.3 | 3.68 | 30.4 | > 44.7 | 15.9 | 3.66 | 30.1 | 3.65 |  |  |
| NN/C(=N\S(=O)(=O)c1ccc(S(=O)(=O)c2ccccc2)s1)Nc1ccc(Cl)cc1 | 36.6 | > 100 | > 100 | > 100 | 62.2 | > 100 | > 100 | 33.5 | 73.3 | 76.5 | 41.8 |  |  |
| Cc1ccc(NC(=O)CC(=O)n2nc(C)c(N=Nc3cccc(C)c3)c2C)cc1 | > 100 | > 100 | > 100 | > 100 | > 100 | > 100 | > 100 | > 100 | > 100 | > 100 | > 100 |  |  |
| c1cc2c(cc1C1=NCCN1)c1cc(C3=NCCN3)ccc1n2CC1CCCCC1 | 39.7 | > 100 | > 100 | 48.7 | 59.6 | 41.9 | > 100 |  | 47.9 | 77.1 | > 100 |  |  |
| COC(=O)C(NC(=O)OC(C)(C)C)P(=O)(OC)OC (stereo not drawn) | > 100 | > 100 | > 100 | > 100 | > 100 | > 100 | > 100 | > 100 | > 100 | > 100 | > 100 |  |  |
| O=P(O)(O)CN1CCNCCN(CP(=O)(O)O)CC1 | > 100 | > 100 | > 100 | > 86.8 | 18.2 | > 100 | > 100 | > 100 | > 100 | > 100 | > 72.9 |  |  |
| O=[N+]([O-])/C(C(Cl)=C(Cl)Cl)=C(/Nc1ccccc1)Sc1ccccc1 | 30.7 | 41.6 | 29.5 | 40.1 | 42.4 | 66.9 | 51.1 | 39.9 | 68.3 | 41.4 | 56.3 |  |  |
| COC(=O)c1ccc(NCC2=C(Br)C(=O)C=CC2=O)cc1Cl | 28.1 | 29.2 | 70.6 | > 100 | > 100 | 26.1 | 30.8 | 33.8 | 29.1 | 42.5 | 35.8 |  |  |
| Cc1ccc(S[C@@H](C)[C@@](O)(C(N)=O)c2ccccc2)cc1 | 33.7 | > 100 | 30.7 | > 100 | > 100 | > 100 | > 100 | > 100 | 37.6 | > 100 | > 100 |  |  |
| CC(=O)OCC1OC(n2c(-c3ccccc3)c(N=Nc3ccc(C)cc3)c(C)c(C#N)c2=S)C(OC(C)=O)C(OC(C)=O)C1OC(C)=O (stereo not drawn) | 64.1 | 86.6 | 64.5 |  | > 100 | 19 | 11.4 |  | 0.856 | > 100 | 74.9 |  |  |
| CC(C)(C)[Si](C)(C)OC[C@H](/C=C\CCCC(=O)O)NC1(c2ccccc2)c2ccccc2-c2ccccc21 | 25.5 | 50.9 | 93.9 | 26 | 37 | 91.6 | > 100 | 36 | 25.5 | > 100 | > 100 |  |  |
| O=c1cc(N2CCCC2)[nH]c(=O)n1-c1ccc(Cl)cc1 | > 100 | > 100 | > 100 | > 100 | > 100 | > 100 | > 100 | > 100 | > 100 | > 100 | > 100 |  |  |
| CN(C)/C=C/C=C(/C=N/S(=O)(=O)C(F)(F)F)C1C=CN(S(=O)(=O)C(F)(F)F)C=C1 | > 100 | 57.8 | 76.6 | 67.3 | 46.4 | 70.1 | > 100 | 83.9 | 90 | > 100 | > 100 |  |  |
| CN1CCN([C@H]2C[C@H]3[C@@H]4CC=C5C[C@@H](O)CC[C@]5(C)[C@H]4CC[C@]3(C)[C@H]2O)CC1 | > 57.3 | > 59.2 | > 100 | > 100 | 39.7 | > 100 | 49.7 | > 60.5 | > 100 | > 100 | 34.6 |  |  |
| CCOC(=O)CCC(NC(=O)c1ccc(Nc2nc3ccccc3nc2C(=O)OCC)cc1)C(=O)OCC (stereo not drawn) | > 41.5 | > 100 | 14.4 | 12.2 | > 100 | 25.7 | 49.9 | 9.15 | 13.9 | > 35.8 | > 100 |  |  |
| CC(C)NC(=O)OCc1c(COC(=O)NC(C)C)c(-c2cc[n+](COC(=O)C3CCCCC3)cc2)n2c1CCC2 | > 100 | > 100 | > 100 | > 100 | > 100 | > 100 | > 100 | > 100 | > 100 | > 100 | > 100 |  |  |
| O=C(NCCCCCN1CCC2(CCCCC2)CC1)C(C1CCCCC1)C1CCCCC1 | 7.02 | 12.2 | 11.6 | 11.8 | 3.62 | 15.4 | 8.05 | 7.2 | 12.2 | 9.75 | 3.51 |  |  |
